For one data set, the target named is T1, MRP4 (ABCC4) (Homo sapiens, UniProt O15439).
T1 sequence (O15439 whole entry): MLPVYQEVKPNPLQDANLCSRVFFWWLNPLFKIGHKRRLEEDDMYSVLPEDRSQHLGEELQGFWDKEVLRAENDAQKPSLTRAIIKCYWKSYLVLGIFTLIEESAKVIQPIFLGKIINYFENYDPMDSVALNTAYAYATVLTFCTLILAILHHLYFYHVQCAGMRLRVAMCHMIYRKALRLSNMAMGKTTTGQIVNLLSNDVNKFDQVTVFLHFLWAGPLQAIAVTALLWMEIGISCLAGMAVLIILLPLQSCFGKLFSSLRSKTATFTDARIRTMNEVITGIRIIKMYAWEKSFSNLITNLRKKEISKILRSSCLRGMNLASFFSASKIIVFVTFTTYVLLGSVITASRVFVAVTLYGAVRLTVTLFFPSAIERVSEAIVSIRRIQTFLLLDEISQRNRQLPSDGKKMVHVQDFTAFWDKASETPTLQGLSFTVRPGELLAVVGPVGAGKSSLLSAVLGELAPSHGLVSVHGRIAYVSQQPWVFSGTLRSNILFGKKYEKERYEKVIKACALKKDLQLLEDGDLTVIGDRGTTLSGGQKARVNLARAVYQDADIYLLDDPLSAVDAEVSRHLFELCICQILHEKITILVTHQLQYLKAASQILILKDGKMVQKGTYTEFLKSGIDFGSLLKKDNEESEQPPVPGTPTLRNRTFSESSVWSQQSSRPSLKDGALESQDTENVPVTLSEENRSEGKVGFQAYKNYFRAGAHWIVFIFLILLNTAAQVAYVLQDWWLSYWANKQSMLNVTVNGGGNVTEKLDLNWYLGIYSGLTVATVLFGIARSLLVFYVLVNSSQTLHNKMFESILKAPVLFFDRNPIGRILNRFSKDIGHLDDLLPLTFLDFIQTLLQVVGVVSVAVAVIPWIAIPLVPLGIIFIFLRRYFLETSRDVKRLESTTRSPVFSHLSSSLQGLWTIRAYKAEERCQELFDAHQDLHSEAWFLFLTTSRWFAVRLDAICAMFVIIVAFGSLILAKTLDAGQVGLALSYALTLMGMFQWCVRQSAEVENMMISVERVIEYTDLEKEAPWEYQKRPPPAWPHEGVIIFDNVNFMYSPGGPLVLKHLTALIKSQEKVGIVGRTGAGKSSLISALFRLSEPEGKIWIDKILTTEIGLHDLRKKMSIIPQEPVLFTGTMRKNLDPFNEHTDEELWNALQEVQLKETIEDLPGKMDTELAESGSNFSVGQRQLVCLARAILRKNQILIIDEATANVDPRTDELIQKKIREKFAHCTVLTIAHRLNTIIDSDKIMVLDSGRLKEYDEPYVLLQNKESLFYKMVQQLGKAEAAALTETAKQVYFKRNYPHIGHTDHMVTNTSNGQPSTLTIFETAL
Briefly: TP_TRANSPORTER: inhibition of E217betaG uptake (E217betaG: 1 uM, MTX: 300 uM) in membrane vesicles from MRP4-expressing Sf9 cells. In kind it is functional, cell membranes, Membrane vesicle. Also on record: scale not given: the % may be the effect or the level left. To be noted: probe E217betaG (estradiol 17beta-glucuronide), read-out: Activity.

The target of data set [1] is T2, ATP-binding cassette sub-family C member 4 (Homo sapiens, UniProt O15439).
T2 sequence (O15439 whole entry): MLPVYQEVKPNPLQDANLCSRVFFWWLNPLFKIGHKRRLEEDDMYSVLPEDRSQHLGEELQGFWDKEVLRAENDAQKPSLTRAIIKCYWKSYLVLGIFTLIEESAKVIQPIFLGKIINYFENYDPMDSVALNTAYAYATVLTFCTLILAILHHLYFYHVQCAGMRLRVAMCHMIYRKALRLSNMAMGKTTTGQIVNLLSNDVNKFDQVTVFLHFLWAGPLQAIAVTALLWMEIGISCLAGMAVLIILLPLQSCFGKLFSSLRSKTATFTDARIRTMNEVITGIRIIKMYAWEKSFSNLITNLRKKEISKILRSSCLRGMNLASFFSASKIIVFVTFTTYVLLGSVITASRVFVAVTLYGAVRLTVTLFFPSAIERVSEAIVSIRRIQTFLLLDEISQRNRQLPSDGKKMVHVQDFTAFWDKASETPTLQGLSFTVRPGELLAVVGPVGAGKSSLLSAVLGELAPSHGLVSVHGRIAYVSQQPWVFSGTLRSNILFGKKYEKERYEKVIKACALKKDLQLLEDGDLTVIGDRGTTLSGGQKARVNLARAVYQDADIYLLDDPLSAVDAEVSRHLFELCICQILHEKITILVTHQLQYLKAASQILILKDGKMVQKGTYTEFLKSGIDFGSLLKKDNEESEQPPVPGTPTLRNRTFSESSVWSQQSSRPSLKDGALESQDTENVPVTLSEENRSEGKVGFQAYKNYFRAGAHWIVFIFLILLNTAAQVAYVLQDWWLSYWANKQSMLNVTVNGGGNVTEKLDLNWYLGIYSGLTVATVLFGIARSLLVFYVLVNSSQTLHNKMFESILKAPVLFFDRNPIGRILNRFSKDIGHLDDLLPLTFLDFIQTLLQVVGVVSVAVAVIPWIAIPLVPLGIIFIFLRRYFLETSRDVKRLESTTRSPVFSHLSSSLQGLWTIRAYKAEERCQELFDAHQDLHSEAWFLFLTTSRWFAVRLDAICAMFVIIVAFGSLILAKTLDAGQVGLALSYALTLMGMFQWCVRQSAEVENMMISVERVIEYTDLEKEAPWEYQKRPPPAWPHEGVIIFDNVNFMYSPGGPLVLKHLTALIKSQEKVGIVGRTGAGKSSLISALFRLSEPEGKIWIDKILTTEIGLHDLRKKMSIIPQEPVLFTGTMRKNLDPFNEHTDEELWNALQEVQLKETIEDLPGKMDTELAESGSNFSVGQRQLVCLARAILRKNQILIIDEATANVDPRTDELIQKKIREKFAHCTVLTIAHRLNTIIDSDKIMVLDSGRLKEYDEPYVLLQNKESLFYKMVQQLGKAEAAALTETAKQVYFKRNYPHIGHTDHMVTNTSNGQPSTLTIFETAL
Briefly: TP_TRANSPORTER: inhibition of E217betaG uptake (E217betaG: 1 uM, cGMP: 300 uM) in membrane vesicles from MRP4-expressing Sf9 cells. In kind it is functional, cell membranes, Membrane vesicle. On the set-up: scale not given: the % may be the effect or the level left. To be noted: sf9, 300 µM.

The target in data set [2] is T2, ATP-binding cassette sub-family C member 4. As to the kind of experiment: TP_TRANSPORTER: efflux in MRP4-expressing NIH3T3 cells. The class given is functional, cell-based. To be noted: mouse.
Substrate in data set [3]: C[C@]12CC[C@@H]3c4ccc(O)cc4CC[C@H]3[C@@H]1CC[C@@H]2O[C@@H]1O[C@H](C(=O)O)[C@@H](O)[C@H](O)[C@H]1O
As to the kind of experiment: (§1) TP_TRANSPORTER: uptake in membrane vesicles from MRP4-expressing Sf9 cells. The class given is functional, cell membranes, Membrane vesicle.

Substrate in data set [4]: [H][C@@]12COP(=O)(O)O[C@@]1([H])[C@@H](O)[C@H](n1cnc3c(=O)[nH]c(N)nc31)O2
Described as §1. In kind it is functional, cell membranes, Membrane vesicle.

A word on the Km: it is the substrate concentration at which the rate is half of its maximum.

Consider `CN(Cc1cnc2nc(N)nc(N)c2n1)c1ccc(C(=O)N[C@@H](CCC(=O)O)C(=O)O)cc1` [METHOTREXATE], for which the activity at 300 µM at MRP4 (ABCC4) turned out to be 40.3%. `Nc1nc2c(ncn2[C@@H]2O[C@@H]3COP(=O)(O)O[C@H]3[C@H]2O)c(=O)[nH]1`: the Activity in data set [1] is reported as 16.2%. For `Sc1ncnc2nc[nH]c12` [MERCAPTOPURINE ANHYDROUS], the Activity result in data set [2] is “substrate [+]”.

B1: ATP-binding cassette sub-family C member 4 (Homo sapiens) (protein)
chain: MLPVYQEVKPNPLQDANLCSRVFFWWLNPLFKIGHKRRLEEDDMYSVLPEDRSQHLGEELQGFWDKEVLRAENDAQKPSLTRAIIKCYWKSYLVLGIFTLIEESAKVIQPIFLGKIINYFENYDPMDSVALNTAYAYATVLTFCTLILAILHHLYFYHVQCAGMRLRVAMCHMIYRKALRLSNMAMGKTTTGQIVNLLSNDVNKFDQVTVFLHFLWAGPLQAIAVTALLWMEIGISCLAGMAVLIILLPLQSCFGKLFSSLRSKTATFTDARIRTMNEVITGIRIIKMYAWEKSFSNLITNLRKKEISKILRSSCLRGMNLASFFSASKIIVFVTFTTYVLLGSVITASRVFVAVTLYGAVRLTVTLFFPSAIERVSEAIVSIRRIQTFLLLDEISQRNRQLPSDGKKMVHVQDFTAFWDKASETPTLQGLSFTVRPGELLAVVGPVGAGKSSLLSAVLGELAPSHGLVSVHGRIAYVSQQPWVFSGTLRSNILFGKKYEKERYEKVIKACALKKDLQLLEDGDLTVIGDRGTTLSGGQKARVNLARAVYQDADIYLLDDPLSAVDAEVSRHLFELCICQILHEKITILVTHQLQYLKAASQILILKDGKMVQKGTYTEFLKSGIDFGSLLKKDNEESEQPPVPGTPTLRNRTFSESSVWSQQSSRPSLKDGALESQDTENVPVTLSEENRSEGKVGFQAYKNYFRAGAHWIVFIFLILLNTAAQVAYVLQDWWLSYWANKQSMLNVTVNGGGNVTEKLDLNWYLGIYSGLTVATVLFGIARSLLVFYVLVNSSQTLHNKMFESILKAPVLFFDRNPIGRILNRFSKDIGHLDDLLPLTFLDFIQTLLQVVGVVSVAVAVIPWIAIPLVPLGIIFIFLRRYFLETSRDVKRLESTTRSPVFSHLSSSLQGLWTIRAYKAEERCQELFDAHQDLHSEAWFLFLTTSRWFAVRLDAICAMFVIIVAFGSLILAKTLDAGQVGLALSYALTLMGMFQWCVRQSAEVENMMISVERVIEYTDLEKEAPWEYQKRPPPAWPHEGVIIFDNVNFMYSPGGPLVLKHLTALIKSQEKVGIVGRTGAGKSSLISALFRLSEPEGKIWIDKILTTEIGLHDLRKKMSIIPQEPVLFTGTMRKNLDPFNEHTDEELWNALQEVQLKETIEDLPGKMDTELAESGSNFSVGQRQLVCLARAILRKNQILIIDEATANVDPRTDELIQKKIREKFAHCTVLTIAHRLNTIIDSDKIMVLDSGRLKEYDEPYVLLQNKESLFYKMVQQLGKAEAAALTETAKQVYFKRNYPHIGHTDHMVTNTSNGQPSTLTIFETAL
On to B1, for which the figures for the Km in data set [3] and in data set [4] were 30.3 µM and 9.69 µM, respectively.

These data come from ChEMBL document CHEMBL2074175, “Transport of cyclic nucleotides and estradiol 17-beta-D-glucuronide by multidrug resistance protein 4. Resistance to 6-mercaptopurine and 6-thioguanine” (J Biol Chem, 2001).
